From patent publication US20260284018A1, “DUAL INHIBITORS OF DYRK1A AND 5-HT2 FOR TREATING A BRAIN DISORDER” (THE REGENTS OF THE UNIVERSITY OF CALIFORNIA, priority 2023, published 2026)

How the values were obtained:
Experiment in all cases: KINOMEscan scanEDGE
Format in all cases: binding
Conditions in all cases: read-out: Percent Control
[1] = biological target: T1, ABL1(E255K)-phosphorylated (Homo sapiens, UniProt P00519, E255K)
T1 construct: purchased Eurofins DiscoverX
Experimental: (§1) Kinome Scan. Compound HTW_A_8 fumarate was screened against 97 kinases at a single concentration of 10 μM at Eurofins DiscoverX using their KINOMEscan™ scanEDGE assay. The results are reported as the % activity relative to DMSO control, where lower values indicate higher affinity. See Table 1 for the full kinome profile.

[2] = biological target: T2, ABL1(T315I)-phosphorylated (Homo sapiens, UniProt P00519, T315I)
T2 construct: purchased Eurofins DiscoverX
Experimental: as §1

ABL1-nonphosphorylated = biological target: T3, ABL1-nonphosphorylated (Homo sapiens, UniProt P00519)
T3 construct: purchased Eurofins DiscoverX
Experimental: as §1

ABL1-phosphorylated = biological target: T4, ABL1-phosphorylated (Homo sapiens, UniProt P00519)
T4 construct: purchased Eurofins DiscoverX
Experimental: as §1

ACVR1B = biological target: T5, ACVR1B (Homo sapiens, UniProt P36896)
T5 construct: purchased Eurofins DiscoverX
Experimental: as §1

AKT2 = biological target: T6, AKT2 (Homo sapiens, UniProt P31751)
T6 construct: purchased Eurofins DiscoverX
Experimental: as §1

AURKB = biological target: T7, AURKB (Homo sapiens, UniProt Q96GD4)
T7 construct: purchased Eurofins DiscoverX
Experimental: as §1

AXL = biological target: T8, AXL (Homo sapiens, UniProt P30530)
T8 construct: purchased Eurofins DiscoverX
Experimental: as §1

CDK11 = biological target: T9, CDK11 (Homo sapiens, UniProt Q9BWU1)
T9 construct: purchased Eurofins DiscoverX
Experimental: as §1

CSF1R = biological target: T10, CSF1R (Homo sapiens, UniProt P07333)
T10 construct: purchased Eurofins DiscoverX
Experimental: as §1

CSNK1G2 = biological target: T11, CSNK1G2 (Homo sapiens, UniProt P78368)
T11 construct: purchased Eurofins DiscoverX
Experimental: as §1

ERBB2 = biological target: T12, ERBB2 (Homo sapiens, UniProt P04626)
T12 construct: purchased Eurofins DiscoverX
T12 sequence (P04626 23-1255): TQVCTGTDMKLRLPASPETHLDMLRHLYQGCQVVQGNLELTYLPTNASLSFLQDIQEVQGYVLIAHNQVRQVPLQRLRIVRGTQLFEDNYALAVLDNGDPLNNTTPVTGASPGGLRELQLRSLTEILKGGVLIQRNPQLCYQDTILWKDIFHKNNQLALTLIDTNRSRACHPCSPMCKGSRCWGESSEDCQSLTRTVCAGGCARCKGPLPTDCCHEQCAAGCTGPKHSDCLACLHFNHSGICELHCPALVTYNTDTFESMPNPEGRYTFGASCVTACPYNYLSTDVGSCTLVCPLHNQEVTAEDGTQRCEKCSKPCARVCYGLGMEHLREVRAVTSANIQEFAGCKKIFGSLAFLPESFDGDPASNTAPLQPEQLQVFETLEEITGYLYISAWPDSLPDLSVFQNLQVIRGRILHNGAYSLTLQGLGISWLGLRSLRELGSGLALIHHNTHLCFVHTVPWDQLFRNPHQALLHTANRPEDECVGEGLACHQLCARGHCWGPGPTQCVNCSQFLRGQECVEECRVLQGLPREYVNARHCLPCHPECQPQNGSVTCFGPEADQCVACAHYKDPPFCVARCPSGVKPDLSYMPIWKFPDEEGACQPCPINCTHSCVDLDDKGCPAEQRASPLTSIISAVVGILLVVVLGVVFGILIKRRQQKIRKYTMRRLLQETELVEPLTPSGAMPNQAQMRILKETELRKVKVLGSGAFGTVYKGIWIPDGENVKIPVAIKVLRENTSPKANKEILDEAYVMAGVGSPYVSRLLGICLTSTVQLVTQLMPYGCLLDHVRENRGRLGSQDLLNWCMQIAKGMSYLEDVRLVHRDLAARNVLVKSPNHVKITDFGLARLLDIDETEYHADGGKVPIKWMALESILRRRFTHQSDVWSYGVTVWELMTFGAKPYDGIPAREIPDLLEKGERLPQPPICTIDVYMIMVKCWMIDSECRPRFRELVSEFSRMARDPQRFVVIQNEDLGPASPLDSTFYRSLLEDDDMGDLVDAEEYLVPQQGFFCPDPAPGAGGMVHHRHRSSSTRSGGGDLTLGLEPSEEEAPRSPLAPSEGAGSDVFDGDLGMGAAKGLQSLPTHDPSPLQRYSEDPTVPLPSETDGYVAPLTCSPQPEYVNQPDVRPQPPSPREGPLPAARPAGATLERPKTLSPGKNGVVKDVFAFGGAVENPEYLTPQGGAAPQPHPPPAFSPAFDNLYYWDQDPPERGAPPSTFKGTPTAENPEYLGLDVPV
Experimental: as §1

FLT3 = biological target: T13, FLT3 (Homo sapiens, UniProt P36888)
T13 construct: purchased Eurofins DiscoverX
T13 sequence (P36888 27-993): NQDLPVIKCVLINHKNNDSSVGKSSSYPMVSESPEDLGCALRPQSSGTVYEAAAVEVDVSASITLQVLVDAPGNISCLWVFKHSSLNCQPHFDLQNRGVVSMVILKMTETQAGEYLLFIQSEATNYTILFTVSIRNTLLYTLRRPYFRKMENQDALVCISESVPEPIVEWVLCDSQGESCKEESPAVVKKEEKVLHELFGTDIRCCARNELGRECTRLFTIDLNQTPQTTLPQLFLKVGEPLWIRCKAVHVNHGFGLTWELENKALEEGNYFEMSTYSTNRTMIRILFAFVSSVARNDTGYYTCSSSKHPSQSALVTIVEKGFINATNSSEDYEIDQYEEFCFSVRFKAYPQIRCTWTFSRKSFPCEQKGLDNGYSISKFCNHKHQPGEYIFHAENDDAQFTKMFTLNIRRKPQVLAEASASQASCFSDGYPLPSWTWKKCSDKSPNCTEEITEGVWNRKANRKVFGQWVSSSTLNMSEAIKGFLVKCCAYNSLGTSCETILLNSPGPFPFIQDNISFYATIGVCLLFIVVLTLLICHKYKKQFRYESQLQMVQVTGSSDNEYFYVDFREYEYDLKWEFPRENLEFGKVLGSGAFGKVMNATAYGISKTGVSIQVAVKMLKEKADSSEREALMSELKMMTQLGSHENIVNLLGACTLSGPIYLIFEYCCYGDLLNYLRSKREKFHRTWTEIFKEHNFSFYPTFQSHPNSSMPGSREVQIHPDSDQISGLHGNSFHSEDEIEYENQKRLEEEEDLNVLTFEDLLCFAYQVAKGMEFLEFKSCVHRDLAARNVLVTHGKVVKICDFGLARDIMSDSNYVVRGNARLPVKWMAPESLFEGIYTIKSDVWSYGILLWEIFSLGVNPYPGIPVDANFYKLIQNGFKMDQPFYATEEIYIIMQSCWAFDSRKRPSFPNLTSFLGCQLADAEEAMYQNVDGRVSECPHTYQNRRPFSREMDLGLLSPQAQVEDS
Experimental: as §1

GSK3B = biological target: T14, GSK3B (Homo sapiens, UniProt P49841)
T14 construct: purchased Eurofins DiscoverX
T14 sequence (P49841 whole entry): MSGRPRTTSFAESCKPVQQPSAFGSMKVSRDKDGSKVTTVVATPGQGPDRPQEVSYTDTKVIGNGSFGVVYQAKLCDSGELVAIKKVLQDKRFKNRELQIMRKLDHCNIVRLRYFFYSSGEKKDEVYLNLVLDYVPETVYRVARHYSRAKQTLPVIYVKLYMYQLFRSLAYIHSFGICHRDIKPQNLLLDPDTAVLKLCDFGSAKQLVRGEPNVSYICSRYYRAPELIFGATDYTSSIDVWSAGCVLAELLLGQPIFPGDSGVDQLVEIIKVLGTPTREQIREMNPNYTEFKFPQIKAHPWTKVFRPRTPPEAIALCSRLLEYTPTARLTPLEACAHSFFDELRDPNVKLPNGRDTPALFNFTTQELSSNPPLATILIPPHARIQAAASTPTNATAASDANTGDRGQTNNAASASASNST
Experimental: as §1

JNK1 = biological target: T15, JNK1 (Homo sapiens, UniProt P45983)
T15 construct: purchased Eurofins DiscoverX
T15 sequence (P45983 whole entry): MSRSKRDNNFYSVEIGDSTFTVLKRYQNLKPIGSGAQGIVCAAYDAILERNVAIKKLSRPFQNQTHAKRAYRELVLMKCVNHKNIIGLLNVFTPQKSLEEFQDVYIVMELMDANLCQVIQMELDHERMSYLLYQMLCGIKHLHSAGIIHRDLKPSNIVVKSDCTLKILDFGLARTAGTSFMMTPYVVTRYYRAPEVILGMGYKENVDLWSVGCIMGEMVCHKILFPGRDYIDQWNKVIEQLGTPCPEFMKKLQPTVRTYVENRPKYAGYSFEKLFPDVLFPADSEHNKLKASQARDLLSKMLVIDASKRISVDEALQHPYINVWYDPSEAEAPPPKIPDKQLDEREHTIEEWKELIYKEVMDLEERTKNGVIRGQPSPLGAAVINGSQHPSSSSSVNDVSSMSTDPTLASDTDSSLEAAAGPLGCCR
Experimental: as §1

LKB1 = biological target: T16, LKB1 (Homo sapiens, UniProt Q15831)
T16 construct: purchased Eurofins DiscoverX (KINOMEscan scanEDGE service)
Experimental: as §1

MAP3K4 = biological target: T17, MAP3K4 (Homo sapiens, UniProt Q9Y6R4)
T17 construct: purchased Eurofins DiscoverX (KINOMEscan scanEDGE service)
Experimental: as §1

MEK1 = biological target: T18, MEK1 (Homo sapiens, UniProt Q02750)
T18 construct: purchased Eurofins DiscoverX (KINOMEscan scanEDGE service)
Experimental: as §1

MEK2 = biological target: T19, MEK2 (Homo sapiens, UniProt P36507)
T19 construct: purchased Eurofins DiscoverX (KINOMEscan scanEDGE service)
Experimental: as §1

MKNK1 = biological target: T20, MKNK1 (Homo sapiens, UniProt Q9BUB5)
T20 construct: purchased Eurofins DiscoverX (KINOMEscan scanEDGE service)
Experimental: as §1

MKNK2 = biological target: T21, MKNK2 (Homo sapiens, UniProt Q9HBH9)
T21 construct: purchased Eurofins DiscoverX (KINOMEscan scanEDGE service)
Experimental: as §1

PAK2 = biological target: T22, PAK2 (Homo sapiens, UniProt Q13177)
T22 construct: purchased Eurofins DiscoverX (KINOMEscan scanEDGE service)
Experimental: as §1

PCTK1 = biological target: T23, PCTK1 (Homo sapiens, UniProt Q00536)
T23 construct: purchased Eurofins DiscoverX (KINOMEscan scanEDGE service)
Experimental: as §1

PDGFRA = biological target: T24, PDGFRA (Homo sapiens, UniProt P16234)
T24 construct: purchased Eurofins DiscoverX (KINOMEscan scanEDGE service)
Experimental: as §1

PDGFRB = biological target: T25, PDGFRB (Homo sapiens, UniProt P09619)
T25 construct: purchased Eurofins DiscoverX (KINOMEscan scanEDGE service)
Experimental: as §1

PIK3C2B = biological target: T26, PIK3C2B (Homo sapiens, UniProt O00750)
T26 construct: purchased Eurofins DiscoverX (KINOMEscan scanEDGE service)
Experimental: as §1

PIK3CG = biological target: T27, PIK3CG (Homo sapiens, UniProt P48736)
T27 construct: purchased Eurofins DiscoverX (KINOMEscan scanEDGE service)
Experimental: as §1

PIM1 = biological target: T28, PIM1 (Homo sapiens, UniProt P11309)
T28 construct: purchased Eurofins DiscoverX (KINOMEscan scanEDGE service)
T28 sequence (P11309 whole entry): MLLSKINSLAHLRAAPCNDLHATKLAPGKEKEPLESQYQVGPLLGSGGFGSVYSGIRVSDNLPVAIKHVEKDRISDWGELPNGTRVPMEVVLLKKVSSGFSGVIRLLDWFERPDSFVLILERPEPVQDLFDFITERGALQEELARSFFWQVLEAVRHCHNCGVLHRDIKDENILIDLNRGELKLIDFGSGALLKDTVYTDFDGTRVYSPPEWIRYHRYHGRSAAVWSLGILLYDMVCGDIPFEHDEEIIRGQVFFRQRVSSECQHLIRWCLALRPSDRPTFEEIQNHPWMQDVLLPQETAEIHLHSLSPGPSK
Experimental: as §1

PIM2 = biological target: T29, PIM2 (Homo sapiens, UniProt Q9P1W9)
T29 construct: purchased Eurofins DiscoverX (KINOMEscan scanEDGE service)
T29 sequence (Q9P1W9 whole entry): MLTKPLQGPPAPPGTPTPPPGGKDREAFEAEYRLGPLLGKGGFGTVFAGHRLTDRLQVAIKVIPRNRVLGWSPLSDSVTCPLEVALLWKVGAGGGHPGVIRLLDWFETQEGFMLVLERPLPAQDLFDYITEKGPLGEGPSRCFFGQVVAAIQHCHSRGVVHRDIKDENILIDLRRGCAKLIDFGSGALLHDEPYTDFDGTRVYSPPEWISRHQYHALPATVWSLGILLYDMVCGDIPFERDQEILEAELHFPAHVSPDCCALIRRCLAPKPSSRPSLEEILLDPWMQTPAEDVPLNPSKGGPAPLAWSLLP
Experimental: as §1

PIM3 = biological target: T30, PIM3 (Homo sapiens, UniProt Q86V86)
T30 construct: purchased Eurofins DiscoverX (KINOMEscan scanEDGE service)
Experimental: as §1

PKAC-alpha = biological target: T31, PKAC-alpha (Homo sapiens, UniProt P17612)
T31 construct: purchased Eurofins DiscoverX KINOMEscan scanEDGE
Experimental: as §1

RAF1 = biological target: T32, RAF1 (Homo sapiens, UniProt P04049)
T32 construct: purchased Eurofins DiscoverX KINOMEscan scanEDGE
Experimental: as §1

ROCK2 = biological target: T33, ROCK2 (Homo sapiens, UniProt O75116)
T33 construct: purchased Eurofins DiscoverX KINOMEscan scanEDGE
Experimental: as §1

TGFBR1 = biological target: T34, TGFBR1 (Homo sapiens, UniProt P36897)
T34 construct: purchased Eurofins DiscoverX KINOMEscan scanEDGE
Experimental: as §1

TIE2 = biological target: T35, TIE2 (Homo sapiens, UniProt Q02763)
T35 construct: purchased Eurofins DiscoverX KINOMEscan scanEDGE
Experimental: as §1

TRKA = biological target: T36, TRKA (Homo sapiens, UniProt P04629)
T36 construct: purchased Eurofins DiscoverX KINOMEscan scanEDGE
Experimental: as §1

ULK2 = biological target: T37, ULK2 (Homo sapiens, UniProt Q8IYT8)
T37 construct: purchased Eurofins DiscoverX KINOMEscan scanEDGE
T37 sequence (Q8IYT8 whole entry): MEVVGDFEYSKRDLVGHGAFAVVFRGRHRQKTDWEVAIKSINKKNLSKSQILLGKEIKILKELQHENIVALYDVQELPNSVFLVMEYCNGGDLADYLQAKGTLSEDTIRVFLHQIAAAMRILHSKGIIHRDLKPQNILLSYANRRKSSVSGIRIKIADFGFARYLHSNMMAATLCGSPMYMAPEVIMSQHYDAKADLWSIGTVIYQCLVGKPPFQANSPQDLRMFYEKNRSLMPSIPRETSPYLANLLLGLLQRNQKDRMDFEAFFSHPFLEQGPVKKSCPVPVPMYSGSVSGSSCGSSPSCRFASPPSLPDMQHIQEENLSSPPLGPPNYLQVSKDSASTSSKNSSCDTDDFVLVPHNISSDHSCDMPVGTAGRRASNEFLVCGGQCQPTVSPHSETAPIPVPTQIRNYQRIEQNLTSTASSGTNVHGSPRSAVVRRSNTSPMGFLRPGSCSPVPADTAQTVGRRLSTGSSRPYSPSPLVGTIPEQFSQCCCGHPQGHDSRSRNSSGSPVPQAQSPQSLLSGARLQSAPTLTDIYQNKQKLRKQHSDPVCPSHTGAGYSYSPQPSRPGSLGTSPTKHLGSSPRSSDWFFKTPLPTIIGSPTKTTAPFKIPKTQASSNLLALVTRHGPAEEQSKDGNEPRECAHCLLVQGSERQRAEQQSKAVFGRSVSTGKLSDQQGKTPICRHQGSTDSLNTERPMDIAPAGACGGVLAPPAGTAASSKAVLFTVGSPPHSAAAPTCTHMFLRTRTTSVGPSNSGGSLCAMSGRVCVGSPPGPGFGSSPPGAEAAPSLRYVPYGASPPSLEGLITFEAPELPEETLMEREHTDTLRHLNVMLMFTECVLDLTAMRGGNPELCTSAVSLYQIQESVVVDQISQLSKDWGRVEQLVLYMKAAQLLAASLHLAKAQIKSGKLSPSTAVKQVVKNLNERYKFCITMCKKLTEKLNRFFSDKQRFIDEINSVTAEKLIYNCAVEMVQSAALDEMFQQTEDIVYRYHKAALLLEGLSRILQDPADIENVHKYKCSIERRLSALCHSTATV
Experimental: as §1

ZAP70 = biological target: T38, ZAP70 (Homo sapiens, UniProt P43403)
T38 construct: purchased Eurofins DiscoverX KINOMEscan scanEDGE
Experimental: as §1

p38-beta = biological target: T39, p38-beta (Homo sapiens, UniProt Q15759)
T39 construct: purchased Eurofins DiscoverX (KINOMEscan scanEDGE service)
Experimental: as §1

## COc1ccc2c3ccnc(C)c3n(CCN(C)C)c2c1.O=C(O)/C=C/C(=O)O [HTW_A_8 fumarate, 2-(7-methoxy-1-methyl-9H-pyrido[3,4-b]indol-9-yl)-N,N-dimethylethan-1-amine Fumarate Salt (2:3)]
[1]
  remaining binding at 10 µM: 79%
[2]
  remaining binding at 10 µM: 100%
ABL1-nonphosphorylated
  remaining binding at 10 µM: 79%
ABL1-phosphorylated
  remaining binding at 10 µM: 81%
ACVR1B
  remaining binding at 10 µM: 83%
AKT2
  remaining binding at 10 µM: 100%
AURKB
  remaining binding at 10 µM: 100%
AXL
  remaining binding at 10 µM: 97%
CDK11
  remaining binding at 10 µM: 95%
CSF1R
  remaining binding at 10 µM: 98%
CSNK1G2
  remaining binding at 10 µM: 86%
ERBB2
  remaining binding at 10 µM: 100%
FLT3
  remaining binding at 10 µM: 85%
GSK3B
  remaining binding at 10 µM: 100%
JNK1
  remaining binding at 10 µM: 100%
LKB1
  remaining binding at 10 µM: 71%
MAP3K4
  remaining binding at 10 µM: 100%
MEK1
  remaining binding at 10 µM: 87%
MEK2
  remaining binding at 10 µM: 82%
MKNK1
  remaining binding at 10 µM: 93%
MKNK2
  remaining binding at 10 µM: 100%
PAK2
  remaining binding at 10 µM: 96%
PCTK1
  remaining binding at 10 µM: 96%
PDGFRA
  remaining binding at 10 µM: 100%
PDGFRB
  remaining binding at 10 µM: 100%
PIK3C2B
  remaining binding at 10 µM: 100%
PIK3CG
  remaining binding at 10 µM: 33%
PIM1
  remaining binding at 10 µM: 94%
PIM2
  remaining binding at 10 µM: 84%
PIM3
  remaining binding at 10 µM: 96%
PKAC-alpha
  remaining binding at 10 µM: 97%
RAF1
  remaining binding at 10 µM: 93%
ROCK2
  remaining binding at 10 µM: 73%
TGFBR1
  remaining binding at 10 µM: 90%
TIE2
  remaining binding at 10 µM: 99%
TRKA
  remaining binding at 10 µM: 93%
ULK2
  remaining binding at 10 µM: 100%
ZAP70
  remaining binding at 10 µM: 93%
p38-beta
  remaining binding at 10 µM: 98%
